The source of these data is patent US20120115896A1, “ISOGENIC HUMAN CELL LINES COMPRISING MUTATED CANCER ALLELES AND PROCESS USING THE CELL LINES” (priority 2008, published 2012).

The structures appear in SMILES notation. Where two headings read alike, the source gives them in different places.

Assay [1] has as its system hTERT-HME1 DKI cells carrying PIK3CA (H1047R) and EGFR (delE746-A750).
For assay [2], the system named is hTERT-HME1 cells carrying BRAF (V600E) KI.
In assay [3] the test system is hTERT-HME1 cells carrying EGFR (delE746-A750) KI.
Assay [4] relates to hTERT-HME1 cells carrying KRAS (G13D) KI.
The test system of assay [5] is hTERT-HME1 cells carrying PIK3CA (E545K and H1047R) KI.
In assay [6] the test system is DLD-1 colorectal cancer cells and derivative clones (DKO-1, DKO-3, DKO-4, PIK3CA WT/mutant). The experiment in a line: Viability (ATP assay) of DLD-1 cells and isogenic KRAS / PIK3CA derivative clones. The settings on record: DLD-1, FIG. 8B.
Description: (§1) Results are expressed as percent of viability compared to cells treated with DMSO only ('control') and represent mean±SD of at least three independent observations.
(§2) After serial dilutions, 100 μl of drugs in serum free medium were added to cells with a multichannel pipette. Vehicle and medium-only containing wells were added as controls. Plates were incubated at 37° C. in 5% CO2 for 96 h, after which cell viability was assessed by ATP content using the CellTiter-Glo® Luminescent Assay (Promega Madison, Wis.).
Assay [7] has as its system HCT 116 colorectal cancer cells and derivative clones (HKh-2, HKe-3, HK2-6, PIK3CA WT/mutant). The experiment in a line: Viability (ATP assay) of HCT 116 cells and isogenic KRAS / PIK3CA derivative clones. As to conditions: HCT 116, FIG. 8A.
Description: as §1, §2
Assay [8] concerns hTERT-HME1 cells carrying PIK3CA (E545K and H1047R) KI. The experiment in a line: Drug assay: cell viability by ATP content (96 h) and Hoechst/propidium iodide staining, KI versus parental cells; ΔKI pharmarray analysis.
Assay [9] has as its system hTERT-HME1 cells carrying KRAS (G13D) KI. The experiment in a line: Drug assay: cell viability by ATP content (96 h), KI versus parental cells; ΔKI pharmarray analysis.
For assay [10], the system named is hTERT-HME1 cells carrying BRAF (V600E) KI. Described as above.
Assay [11] concerns hTERT-HME1 DKI cells carrying PIK3CA (H1047R) and EGFR (delE746-A750). The experiment in a line: Drug assay: cell viability by ATP content (96 h), DKI versus parental cells; ΔKI pharmarray analysis.
For assay [12], the system named is hTERT-HME1 cells carrying EGFR (delE746-A750) KI. The experiment in a line: Drug assay: cell viability by ATP content (CellTiter-Glo, 96 h), KI versus parental cells; ΔKI pharmarray analysis. Background: ATP-based viability assays read luminescence as a measure of living cells.

For `CCN(CC)CCNC(=O)c1cc(Cl)c(N)cc1OC` [Metoclopramide], the “ΔKI PIK3CA + EGFR” value in [1] (Log(M) −3.10) was 2.8; in assay [1] (Log(M) −3.35) it was 0; in [1] (Log(M) −3.57), 0; in assay [1] (Log(M) −3.70), 0.2; in assay [1] (Log(M) −3.82), 0; in assay [1] (Log(M) −4.05) it was 0. The “ΔKI PIK3CA + EGFR” value in assay [1] (Log(M) −4.30) and in assay [1] (Log(M) −4.52) was 0 in each case. Further, the “ΔKI BRAF” value is recorded as −4.48 in assay [2] (Log(M) −3.10); 0 in assay [2] (Log(M) −3.35); 0 in [2] (Log(M) −3.57); −0.66 in [2] (Log(M) −3.70); 0 in [2] (Log(M) −3.82); 0 in [2] (Log(M) −4.05). The “ΔKI BRAF” value in [2] (Log(M) −4.30) and in assay [2] (Log(M) −4.52) was 0 in each case. Besides, the “ΔKI EGFR” value in [3] (Log(M) −3.10) is given as 0; in [3] (Log(M) −3.35), 9.94; in assay [3] (Log(M) −3.57) it was 0; in assay [3] (Log(M) −3.70), 0; in assay [3] (Log(M) −3.82), 0; in [3] (Log(M) −4.05), 0. The “ΔKI EGFR” value in assay [3] (Log(M) −4.30) and in assay [3] (Log(M) −4.52) was 0 each time. For the same compound, the “ΔKI KRAS” value in [4] (Log(M) −3.10), in [4] (Log(M) −3.35), in [4] (Log(M) −3.57), in assay [4] (Log(M) −3.70), in [4] (Log(M) −3.82) and in assay [4] (Log(M) −4.05) was 0 each time. The “ΔKI KRAS” value in [4] (Log(M) −4.30) and in assay [4] (Log(M) −4.52) was 0 in each case. The “ΔKI PIK3CA” value in assay [5] (Log(M) −3.10), in assay [5] (Log(M) −3.35), in [5] (Log(M) −3.57), in assay [5] (Log(M) −3.70), in [5] (Log(M) −3.82) and in assay [5] (Log(M) −4.05) was 0 each time. Moreover, the “ΔKI PIK3CA” value in assay [5] (Log(M) −4.30) and in assay [5] (Log(M) −4.52) was 0 in each case.
Regarding `CC(C)=CCc1c(O)cc(O)c2c1O[C@H](c1ccc(O)cc1)CC2=O` [8-Prenylnaringenin], the “ΔKI PIK3CA + EGFR” value is on record as 0.02 in assay [1] (Log(M) −3.20) and 1.52 in assay [1] (Log(M) −3.68). For the same compound, the “ΔKI BRAF” value is 0.02 in assay [2] (Log(M) −3.20) and 0.88 in assay [2] (Log(M) −3.68). The “ΔKI EGFR” value stood at 0 in assay [3] (Log(M) −3.20) and 1.16 in assay [3] (Log(M) −3.68). In addition, the “ΔKI KRAS” value in [4] (Log(M) −3.20) turned out to be 0.02; in assay [4] (Log(M) −3.68), 0. In addition, the “ΔKI PIK3CA” value in assay [5] (Log(M) −3.20) was 0.02; in assay [5] (Log(M) −3.68), 0.
As to `CO[C@H]1C[C@@H]2CC[C@@H](C)[C@@](O)(O2)C(=O)C(=O)N2CCCC[C@H]2C(=O)O[C@H]([C@H](C)C[C@@H]2CC[C@@H](O)[C@H](OC)C2)CC(=O)[C@H](C)/C=C(\C)[C@@H](O)[C@@H](OC)C(=O)[C@H](C)C[C@H](C)/C=C/C=C/C=C/1C` [rapamycin, Rapamycin], the “ΔKI PIK3CA + EGFR” value is given as 1.22 in assay [1] (Log(M) −5.40); 0 in [1] (Log(M) −6.40); 1.6 in assay [1] (Log(M) −7.40); 0 in assay [1] (Log(M) −8.40); 0.66 in assay [1] (Log(M) −9.40); 0 in assay [1] (Log(M) −10.40).
With `O=C(NOCC1CC1)c1ccc(F)c(F)c1Nc1ccc(I)cc1Cl` [CI-1040, CI-1040 (PD 184352)], the “effect on PIK3CA WT/− cells versus isogenic PIK3CA mutant cells” value in assay [6] and in assay [7] was “affects to a greater extent” in each case. In addition, the “effect on PIK3CA mutant cells in combination with everolimus” value in assay [6] (with everolimus 10^−7 M) and in [7] (with everolimus 10^−7 M) was “effects comparable to those achievable by the MEK inhibitor alone” each time.
`O=c1cc(-c2ccc(O)cc2)oc2cc(O)cc(O)c12` [Apigenin]: the “ΔKI PIK3CA + EGFR” value in assay [1] (Log(M) −4.40), in assay [1] (Log(M) −4.70) and in assay [1] (Log(M) −5.00) was 0 each time. For the same compound, the entries for the “ΔKI BRAF” value in assay [2] (Log(M) −4.40), in [2] (Log(M) −4.70) and in assay [2] (Log(M) −5.00) were −3.18, −2.32 and 0, respectively. Also, the “ΔKI EGFR” value in assay [3] (Log(M) −4.40), in assay [3] (Log(M) −4.70) and in assay [3] (Log(M) −5.00) was 0 throughout. The “ΔKI KRAS” value in assay [4] (Log(M) −4.40), in assay [4] (Log(M) −4.70) and in [4] (Log(M) −5.00) was 0 in each case. For the same compound, the “ΔKI PIK3CA” value in assay [5] (Log(M) −4.40), in assay [5] (Log(M) −4.70) and in assay [5] (Log(M) −5.00) was 0 throughout.
With `COc1cc(O)c2c(c1)O[C@H](c1ccc(O)cc1)CC2=O` [Sakuranetin], the “ΔKI PIK3CA + EGFR” value is given as 0.04 in assay [1] (Log(M) −3.05) and 1.46 in [1] (Log(M) −3.52). The “ΔKI BRAF” value was determined as 0.02 in assay [2] (Log(M) −3.05) and 2.24 in assay [2] (Log(M) −3.52). The “ΔKI EGFR” value in [3] (Log(M) −3.05) was 0.02; in assay [3] (Log(M) −3.52) it was 0.78. For the same compound, the “ΔKI KRAS” value in assay [4] (Log(M) −3.05) and in assay [4] (Log(M) −3.52) was 0 in each case. The “ΔKI PIK3CA” value in assay [5] (Log(M) −3.05) was found to be 0; in assay [5] (Log(M) −3.52), 2.4.
With `Oc1cccc(-c2nc(N3CCOCC3)c3oc4ncccc4c3n2)c1` [PI-103], the “ΔKI PIK3CA + EGFR” value in assay [1] (Log(M) −6.00), in assay [1] (Log(M) −7.00) and in [1] (Log(M) −8.00) was 0 each time. Also, the “ΔKI BRAF” value in [2] (Log(M) −6.00), in [2] (Log(M) −7.00) and in assay [2] (Log(M) −8.00) was 0 in each case. Besides, the “ΔKI EGFR” value in assay [3] (Log(M) −6.00) worked out at 3.9; in assay [3] (Log(M) −7.00), 0; in assay [3] (Log(M) −8.00), 0. Moreover, the “ΔKI KRAS” value in assay [4] (Log(M) −6.00), in [4] (Log(M) −7.00) and in assay [4] (Log(M) −8.00) was 0 each time. For the same compound, the “ΔKI PIK3CA” value in [5] (Log(M) −6.00), in [5] (Log(M) −7.00) and in assay [5] (Log(M) −8.00) was 0 in each case.
`O=C1C[C@@H](c2ccc(O)cc2)Oc2cc(O)cc(O)c21` [Naringenin]: the “ΔKI PIK3CA + EGFR” value in assay [1] (Log(M) −3.05), in assay [1] (Log(M) −3.52) and in assay [1] (Log(M) −4.00) was 0 each time. In addition, the “ΔKI BRAF” value is given as −0.08 in assay [2] (Log(M) −3.05), 0 in assay [2] (Log(M) −3.52) and −1.5 in assay [2] (Log(M) −4.00). In addition, the “ΔKI EGFR” value in assay [3] (Log(M) −3.05), in assay [3] (Log(M) −3.52) and in assay [3] (Log(M) −4.00) was 0 throughout. The “ΔKI KRAS” value in assay [4] (Log(M) −3.05), in assay [4] (Log(M) −3.52) and in [4] (Log(M) −4.00) was 0 each time. Also, the “ΔKI PIK3CA” value in assay [5] (Log(M) −3.05), in assay [5] (Log(M) −3.52) and in assay [5] (Log(M) −4.00) was 0 throughout.
In the case of `O=c1cc(N2CCOCC2)oc2c(-c3ccccc3)cccc12` [LY294002, LY 294002], in assay [5] (Log(M) −5.10), the “ΔKI PIK3CA” value is 3.62.
With `C[C@]12CC[C@@H]3c4ccc(O)cc4C[C@@H](CCCCCCCCC[S+]([O-])CCCC(F)(F)C(F)(F)F)[C@H]3[C@@H]1CC[C@@H]2O` (some centres unmarked) [Fulvestrant], the “ΔKI PIK3CA + EGFR” value in [1] (Log(M) −4.05), in assay [1] (Log(M) −4.52) and in [1] (Log(M) −5.00) was 0 each time.
As to `O=C([O-])C[C@H](O)C[C@H](O)/C=C/c1c(C2CC2)nc2ccccc2c1-c1ccc(F)cc1.O=C([O-])C[C@H](O)C[C@H](O)/C=C/c1c(C2CC2)nc2ccccc2c1-c1ccc(F)cc1.[Ca+2]` [itavastatin, Itavastatin Ca], the “ΔKI PIK3CA” value in [8] came out at 0. For the same compound, in [9], the “ΔKI KRAS” value was found to be 0. Also, the results for the “ΔKI BRAF” value in [10] and in assay [10] (listed as OGC-072) were 0 and −7.2, respectively. Also, the “pharmarray: differential response of BRAF mutated cells versus WT” value in assay [10] (hTERT-HME1, FIG. 5H) is “more resistant”. For the same compound, the “ΔKI PIK3CA + EGFR” value in assay [11] is 0. Also, the “ΔKI EGFR” value in assay [12] stood at 0.
Regarding `CC[C@H](C)C(=O)O[C@H]1C[C@H](O)C=C2C=C[C@H](C)[C@H](CC[C@@H](O)C[C@@H](O)CC(=O)[O-])[C@H]21.[Na+]` [Pravastatin Na], the “ΔKI PIK3CA” value in assay [8] (Log(M) −4.32) and in [8] (Log(M) −5.52) was 0 in each case. For the same compound, the “ΔKI KRAS” value in assay [9] (Log(M) −4.32), in assay [9] (Log(M) −4.92) and in assay [9] (Log(M) −5.52) was 0 each time. The “ΔKI BRAF” value in assay [10] (Log(M) −4.32), in assay [10] (Log(M) −4.92) and in assay [10] (Log(M) −5.52) was 0 each time. Also, the “ΔKI PIK3CA + EGFR” value in assay [11] (Log(M) −4.32), in assay [11] (Log(M) −4.92) and in assay [11] (Log(M) −5.52) was 0 throughout. Also, the “ΔKI EGFR” value in assay [12] (Log(M) −4.32), in [12] (Log(M) −4.92) and in assay [12] (Log(M) −5.52) was 0 in each case.
